Numbers after ± are expanded uncertainties.
Assay: xn = mol fraction of the nth substance listed
Conditions: 298.15 K, Liquid

CCO [ethanol] + O
mass density [kg/m3]
Conditions	10000 kPa	20000 kPa	30000 kPa
x1 = 0.003	–	1004.2 ± 0.3	1008.5 ± 0.3
x1 = 0.0042	–	1003.2 ± 0.3	1007.4 ± 0.3
x1 = 0.0082	–	1001.7 ± 0.2	1005.9 ± 0.3
x1 = 0.0119	–	1000.1 ± 0.2	1004.3 ± 0.3
x1 = 0.0158	–	998.2 ± 0.3	1002.4 ± 0.3
x1 = 0.0184	–	996.8 ± 0.2	1000.9 ± 0.2
x1 = 0.0219	–	995.9 ± 0.2	1000.1 ± 0.2
x1 = 0.0255	–	994.4 ± 0.3	998.4 ± 0.3
x1 = 0.0279	–	992.9 ± 0.2	996.9 ± 0.2
x1 = 0.0315	–	992.1 ± 0.2	996.1 ± 0.2
x1 = 0.0366	–	989.8 ± 0.3	993.8 ± 0.3
x1 = 0.0392	–	988.6 ± 0.3	992.6 ± 0.3
x1 = 0.0439	–	987.3 ± 0.3	991.2 ± 0.3
x1 = 0.0483	–	985.6 ± 0.3	989.5 ± 0.3
x1 = 0.0516	–	985.1 ± 0.3	988.9 ± 0.3
x1 = 0.0559	–	983.8 ± 0.3	987.7 ± 0.3
x1 = 0.06	–	982.4 ± 0.3	986.3 ± 0.3
x1 = 0.0652	–	980.8 ± 0.3	984.7 ± 0.3
x1 = 0.0679	–	980 ± 0.3	983.9 ± 0.3
x1 = 0.0722	–	978.7 ± 0.3	982.6 ± 0.3
x1 = 0.0801	–	976.2 ± 0.3	980 ± 0.3
x1 = 0.084	–	975.7 ± 0.3	979.5 ± 0.3
x1 = 0.0879	–	974.4 ± 0.3	978.2 ± 0.3
x1 = 0.0926	–	973.2 ± 0.3	976.9 ± 0.3
x1 = 0.0958	–	972.4 ± 0.3	976.1 ± 0.3
x1 = 0.1006	–	971 ± 0.3	974.8 ± 0.3
x1 = 0.1111	–	968 ± 0.3	971.7 ± 0.3
x1 = 0.1225	–	964.7 ± 0.3	968.5 ± 0.3
x1 = 0.1296	–	962.8 ± 0.3	966.7 ± 0.3
x1 = 0.1402	–	961.3 ± 0.3	963.7 ± 0.3
x1 = 0.151	–	956.6 ± 0.3	960.5 ± 0.3
x1 = 0.1601	–	953.9 ± 0.3	957.9 ± 0.3
x1 = 0.1703	–	950.9 ± 0.3	955 ± 0.3
x1 = 0.18	–	948.1 ± 0.3	952.2 ± 0.3
x1 = 0.1903	–	945.2 ± 0.3	949.3 ± 0.3
x1 = 0.1996	–	942.3 ± 0.3	946.5 ± 0.3
x1 = 0.2269	–	934.5 ± 0.3	938.7 ± 0.4
x1 = 0.2502	–	928 ± 0.3	932.4 ± 0.4
x1 = 0.2745	–	921.3 ± 0.4	925.9 ± 0.4
x1 = 0.3009	–	914.5 ± 0.4	919.2 ± 0.4
x1 = 0.35	–	902.3 ± 0.4	–
x1 = 0.4034	–	890.4 ± 0.4	–
x1 = 0.4501	–	880.4 ± 0.4	–
x1 = 0.498	–	871.3 ± 0.4	–
x1 = 0.5501	–	861.9 ± 0.4	–
x1 = 0.5998	–	853.7 ± 0.5	–
x1 = 0.6489	–	846 ± 0.5	–
x1 = 0.6967	832.3 ± 0.4	839 ± 0.5	–
x1 = 0.7475	825.4 ± 0.4	832.3 ± 0.5	–
x1 = 0.7996	818.3 ± 0.4	825.4 ± 0.5	–
x1 = 0.8484	812.1 ± 0.4	819.3 ± 0.5	–
x1 = 0.8993	805.8 ± 0.4	813.3 ± 0.5	–
x1 = 0.9503	799.9 ± 0.4	807.5 ± 0.5	–
x1 = 1	794 ± 0.4	801.9 ± 0.6	–

Source: the NIST ThermoML archive (doi:10.1016/j.fluid.2004.11.019)
